For this assay, the system named is virus CPE inhibition assay, host cell viability. In words: dose response, CPE inhibition, cell viability (AID 2310).
Setting [1] is: measured here: HTS CPE inhibition EC50.
Setting [2] is: measured here: HTS cell viability IC50.
The mark [3] stands for this setting: measured here: cytotoxicity, cell viability IC50.

The structures appear in SMILES notation. Some results are limits rather than exact numbers.

In the case of `O=C1NC2=C(CCc3ccccc32)C(c2ccc3c(c2)OCO3)N1` (stereo unspecified), the EC50 is 0.39 µM. The compound also gave an EC50 under setting [1] greater than 20 µM. For the same compound, under setting [2], the CC50 was 17.5 µM. Under setting [3], the CC50 was 29.6 µM.

Consider `O=C(Nc1c(-c2ccccc2)nc2sccn12)c1ccccc1`, for which the EC50 was 0.634 µM. The compound further returned an EC50 under setting [1] of 0.634 µM. The CC50 under setting [2] is greater than 60 µM. The compound also displayed a CC50 under setting [3] greater than 60 µM.

As for `COc1ccc(-c2nc(=O)[nH]c3c2CCc2ccccc2-3)cc1`, the EC50 is 0.96 µM. Further, the EC50 under setting [1] stood at 1.1 µM. Moreover, the 50% cytotoxic concentration (CC50) under setting [2] was greater than 20 µM. The same compound showed a CC50 under setting [3] greater than 50 µM.

`Cc1cccc(C2NC(=O)NC3=C2CCc2ccccc23)c1` (stereo unspecified): the EC50 was 0.7 µM. Moreover, the EC50 under setting [1] was found to be 0.908 µM. Further, the CC50 under setting [2] was greater than 20 µM. Further, the half-maximal cytotoxic concentration (CC50) under setting [3] was greater than 50 µM.

The term EC50 denotes the midpoint of the concentration-response curve. Broadly, the CC50 is the concentration giving 50% cytotoxicity.

Values taken from PubChem BioAssay AID2310 (SRMLSC, 2010).
